Measured values reported in ChEMBL document CHEMBL4414598, “Trifluorinated Pyrimidine-Based A2B Antagonists: Optimization and Evidence of Stereospecific Recognition” (J Med Chem, 2019).
Each block holds one compound with its values, some of them ahead of it.

Key:
[1] = target: T1, Adenosine receptor A1 (Homo sapiens) (UniProt P30542); experiment: Displacement of [3H]DPCPX from human recombinant A1 receptor expressed in CHOA1 cell membranes at 1 uM incubated for 60 mins by radioligand binding competition assay relative to control
T1 sequence (whole entry): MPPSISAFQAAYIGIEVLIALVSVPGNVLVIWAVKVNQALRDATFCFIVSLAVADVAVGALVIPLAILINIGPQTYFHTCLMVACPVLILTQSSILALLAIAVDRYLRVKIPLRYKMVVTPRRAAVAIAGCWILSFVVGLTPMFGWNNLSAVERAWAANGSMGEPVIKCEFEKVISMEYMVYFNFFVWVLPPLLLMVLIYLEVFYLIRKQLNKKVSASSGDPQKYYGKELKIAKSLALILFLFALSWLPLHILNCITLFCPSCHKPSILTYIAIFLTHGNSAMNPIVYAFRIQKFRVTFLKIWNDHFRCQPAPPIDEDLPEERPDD

[2] = target: T2, Adenosine receptor A3 (Homo sapiens) (UniProt P0DMS8); experiment: Displacement of [3H]NECA from human A3 receptor expressed in human HeLa cell membranes at 1 uM incubated for 180 mins by radioligand binding competition assay relative to control
T2 sequence (whole entry): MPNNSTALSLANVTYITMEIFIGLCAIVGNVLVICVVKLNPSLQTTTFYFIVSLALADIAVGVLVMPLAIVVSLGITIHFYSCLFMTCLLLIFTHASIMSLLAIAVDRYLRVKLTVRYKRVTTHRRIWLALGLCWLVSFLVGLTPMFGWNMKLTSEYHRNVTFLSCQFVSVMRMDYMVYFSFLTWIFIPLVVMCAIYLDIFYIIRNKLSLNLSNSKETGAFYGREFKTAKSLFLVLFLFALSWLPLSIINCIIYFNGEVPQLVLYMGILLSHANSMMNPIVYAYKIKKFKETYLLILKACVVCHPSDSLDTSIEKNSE

[3] = target: Adenosine receptor A2a (Homo sapiens, UniProt P29274); experiment: Displacement of [3H]ZM241385 from human recombinant A2A receptor expressed in human HeLa cell membranes at 1 uM incubated for 30 mins by radioligand binding competition assay relative to control
Sequence of Adenosine receptor A2a (P29274 whole entry): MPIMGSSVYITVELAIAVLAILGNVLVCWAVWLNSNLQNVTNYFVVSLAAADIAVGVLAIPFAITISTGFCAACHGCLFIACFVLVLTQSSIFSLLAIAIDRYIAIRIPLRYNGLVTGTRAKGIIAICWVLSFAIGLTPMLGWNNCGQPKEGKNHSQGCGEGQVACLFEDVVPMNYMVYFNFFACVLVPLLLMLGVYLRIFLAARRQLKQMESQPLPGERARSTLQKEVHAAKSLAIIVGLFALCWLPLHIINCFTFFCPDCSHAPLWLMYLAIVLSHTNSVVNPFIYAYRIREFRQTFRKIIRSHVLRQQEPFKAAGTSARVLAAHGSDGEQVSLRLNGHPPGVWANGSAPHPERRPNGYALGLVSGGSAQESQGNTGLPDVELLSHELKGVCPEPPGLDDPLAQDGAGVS

[4] = target: T3, Adenosine receptor A2b (Homo sapiens) (UniProt P29275); experiment: Displacement of [3H]DPCPX from human recombinant A2B receptor expressed in human HEK293 cell membranes at 1 uM incubated for 30 mins by radioligand binding competition assay relative to control
T3 sequence (whole entry): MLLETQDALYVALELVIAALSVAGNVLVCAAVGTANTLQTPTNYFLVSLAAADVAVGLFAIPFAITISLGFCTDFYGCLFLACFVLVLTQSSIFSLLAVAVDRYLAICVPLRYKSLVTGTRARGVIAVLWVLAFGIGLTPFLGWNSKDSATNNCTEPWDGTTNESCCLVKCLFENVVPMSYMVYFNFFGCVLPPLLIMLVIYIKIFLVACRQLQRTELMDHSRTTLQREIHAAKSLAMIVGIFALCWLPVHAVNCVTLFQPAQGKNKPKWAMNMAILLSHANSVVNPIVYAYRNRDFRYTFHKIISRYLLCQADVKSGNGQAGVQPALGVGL

SMILES: CC(C)OC(=O)C1=C(C(F)(F)F)NC(=O)NC1c1cccs1 (racemic)
inhibition [1]: 8% | inhibition [2]: 7% | inhibition [3]: 13% | inhibition [4]: 19%

SMILES: CC(C)OC(=O)C1=C(C(F)(F)F)NC(=O)NC1c1ccoc1 (racemic)
inhibition [1]: 27% | inhibition [2]: 1% | inhibition [3]: 21% | inhibition [4]: 37%

SMILES: CC1=C(C(=O)OC(C(F)(F)F)C(F)(F)F)C(c2ccco2)NC(=O)N1 (racemic)
inhibition [1]: 6% | inhibition [2]: 2% | inhibition [3]: 1% | inhibition [4]: 1%

SMILES: CC1=C(C(=O)OC(C(F)(F)F)C(F)(F)F)C(c2cccs2)NC(=O)N1 (racemic)
inhibition [1]: 9% | inhibition [2]: 1% | inhibition [3]: 1% | inhibition [4]: 1%

SMILES: CC1=C(C(=O)OC(C(F)(F)F)C(F)(F)F)C(c2ccoc2)NC(=O)N1 (racemic)
inhibition [1]: 7% | inhibition [2]: 1% | inhibition [3]: 22% | inhibition [4]: 2%

SMILES: CC1=C(C(=O)OCC(F)(F)F)C(c2cccs2)NC(=O)N1 (racemic)
inhibition [1]: 3% | inhibition [2]: 1% | inhibition [3]: 3% | inhibition [4]: 1%

SMILES: CC1=C(C(=O)OCC(F)(F)F)C(c2ccsc2)NC(=O)N1 (racemic)
inhibition [1]: 2% | inhibition [2]: 1% | inhibition [3]: 1% | inhibition [4]: 24%

SMILES: CCOC(=O)C1=C(C(F)(F)F)NC(=O)NC1c1cccs1 (racemic)
inhibition [1]: 28% | inhibition [2]: 1% | inhibition [3]: 20% | inhibition [4]: 16%

SMILES: CC1=C(C(=O)OC(C)C(F)(F)F)C(c2ccco2)NC(=O)N1 (stereo in doubt; 14i-D1)
inhibition [1]: 1% | inhibition [2]: 11% | inhibition [3]: 3%

SMILES: CC1=C(C(=O)OC(C)C(F)(F)F)C(c2ccco2)NC(=O)N1 (stereo in doubt; 14i-D2)
inhibition [1]: 1% | inhibition [2]: 7% | inhibition [3]: 1%

SMILES: CC1=C(C(=O)OC(C)C(F)(F)F)C(c2ccoc2)NC(=O)N1 (stereo in doubt; 14j-D1)
inhibition [1]: 10% | inhibition [2]: 12% | inhibition [3]: 1%

Other lines, results leading:

inhibition [1]: 1% | inhibition [2]: 3% | inhibition [3]: 17%
SMILES: CC1=C(C(=O)OC(C)C)C(c2cccs2)n2c(nc3ccccc32)N1 (centres undefined)

inhibition [1]: 12% | inhibition [2]: 2% | inhibition [3]: 23%
SMILES: CC1=C(C(=O)OC(C)C)C(c2ccoc2)n2c(nc3ccccc32)N1 (centres undefined)

inhibition [1]: 11% | inhibition [2]: 21% | inhibition [3]: 3%
SMILES: CC1=C(C(=O)OC(C)C)C(c2ccsc2)n2c(nc3ccccc32)N1 (centres undefined)

inhibition [1]: 12% | inhibition [2]: 8% | inhibition [3]: 3%
SMILES: CC1=C(C(=O)OCC(F)(F)F)[C@H](c2ccco2)n2c(nc3ccccc32)N1

inhibition [1]: 7% | inhibition [2]: 9% | inhibition [3]: 19% | inhibition [4]: 35%
SMILES: CC1=C(C(=O)O[C@@H](C)C(F)(F)F)[C@H](c2ccco2)n2c(nc3ccccc32)N1

inhibition [1]: 2% | inhibition [2]: 1% | inhibition [3]: 2% | inhibition [4]: 18%
SMILES: CC1=C(C(=O)O[C@H](C)C(F)(F)F)[C@H](c2ccco2)n2c(nc3ccccc32)N1

inhibition [1]: 10% | inhibition [2]: 3% | inhibition [3]: 17%
SMILES: CCOC(=O)C1=C(C(F)(F)F)Nc2nc3ccccc3n2[C@H]1c1ccoc1

inhibition [1]: 5% | inhibition [2]: 1% | inhibition [3]: 14%
SMILES: CCOC(=O)C1=C(C)Nc2nc3ccccc3n2C1c1ccco1 (centres undefined)

inhibition [1]: 8% | inhibition [2]: 1% | inhibition [3]: 16%
SMILES: CCOC(=O)C1=C(C)Nc2nc3ccccc3n2C1c1cccs1 (centres undefined)

inhibition [1]: 7% | inhibition [2]: 1% | inhibition [3]: 11%
SMILES: CCOC(=O)C1=C(C)Nc2nc3ccccc3n2C1c1ccoc1 (centres undefined)

inhibition [1]: 3% | inhibition [2]: 2% | inhibition [3]: 10%
SMILES: CCOC(=O)C1=C(C)Nc2nc3ccccc3n2C1c1ccsc1 (centres undefined)

inhibition [1]: 3% | inhibition [2]: 2% | inhibition [3]: 2%
SMILES: CC1=C(C(=O)OC(C)C(F)(F)F)C(c2ccsc2)NC(=O)N1 (stereo in doubt; 14l-D1)
